Tests used:
Type in all cases: cell-based
[1] = tested on: HCV genotype 1b subgenomic replicon; experiment: Anti-Hepatitis C replicon assay, genotype 1b (luciferase); conditions: Hepatitis C virus; luciferase activity measured 48 hours later; read-out: HCV Genotype 1B Replicon pEC50 (converted)
In short: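 The 1b line is ET cells carrying the I389luc-ubi-neo/NS3-3′/ET replicon with adaptive mutations E1202G, T1280I and K1846T; the 1a line is an Apath replicon line modified with firefly luciferase. Cells were exposed 48 h to compound (final 0.03 pM–50 μM, 0.5-1% DMSO), read by Steady-Glo luciferase, and IC50 came from 10-point four-parameter logistic fits; cytotoxicity was read by CellTiter-Glo.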

[2] = tested on: IFN mediated JAK/STAT pathway (ISG54 promoter); experiment: Activation of the JAK/STAT pathway in HEKBlue IFN-α/β cells (SEAP); conditions: HEK-Blue; 24 h, QUANTI-Blue, OD 650 nm; read-out: EC50 of activation of the JAK/STAT pathway (secreted alkaline phosphatase)
Description: The cells were incubated for 24 h in the presence of several treatments (Example 1, IFNα, and IFNλ3) and the supernatants were measured for the amount of the secreted alkaline phosphatase using QUANTI-Blue™ (InvivoGen) at the optical density of 650 nm. […] The activation of the pathway by IFNα (PBL) and IFNλ3 (R&D Systems Inc.) are shown as positive controls.

[3] = tested on: STAT1 phosphorylation; experiment: STAT1 phosphorylation immunoblot in HCV replicon cells
Description: IFNα (100 U/ml) and DMSO were included as controls. The total cell lysates were analyzed on a 4-20% SDS-PAGE gradient gel and followed by immunoblotting using anti-phopho STAT1 antibody (Cell Signaling). The level of actin was monitored as a loading control. The bands were visualized by the alkaline phosphatase activity conjugated with the secondary antibody (Promega) using ProtoBlot II AP System™ (Promega).

[4] = tested on: reconstructed human epidermis (RHE) keratinocytes; experiment: JAK/STAT induction in reconstructed human epidermis (western blot, real-time PCR); conditions: 10 μM (IFN-alpha 100 U/mL), 6 and 72 hrs
Description: First, reconstructed human epidermis (“RHE”) consisting of cultured human keratinocyte cells were incubated in triplicate with media containing either the media alone, media+0.1% DMSO, media containing 10 μM of several putative JAK/STAT activator compounds described herein in Tables 1 and 2 (Example 1, Example 2, Example 11, and compound no. 89 (as a negative control)), or media containing 100 U/mL of a positive control Interferon-alpha (IFN-alpha) recombinant protein at 37° C. in a humidified atmosphere containing 5% CO2, for 6 and 72 hours.
At the end of the incubation period, the RHE tissues were cut into two sections. One section was ¼ of the total size and the second section was […].

[5] = tested on: interferon stimulated genes (ISGs); experiment: Expression of interferon stimulated genes in HCV replicon cells (real time RT-PCR)
From the text: The up-regulation of interferon stimulated genes upon treatment with Example 1 was monitored by quantitative real time RT-PCR using specific primers for each gene, as shown in FIG. 3. […] Total RNA was isolated using RNeasy 96 kit (Qiagen) and converted to cDNA using High Capacity cDNA reverse transcription kit (Applied Biosystems). For real time PCR, the cDNA was used for PCR reactions using TaqMan Fast Universal PCR master mix (Applied Biosystems) and specific primers (Applied Biosystems). As housekeeping genes, actin and GAPDH were used for normalization. Data was calculated by the ΔΔCt method and fold change determined compared to DMSO-treated control samples.

Compound: FC(F)(F)c1cc(C(F)(F)F)c2ccc3nc(-c4nnco4)cn3c2n1 [Compound 1, 2-[2,4-bis(trifluoromethyl)imidazo[1,2-a]1,8-naphthyridin-8-yl]-1,3,4-oxadiazole]
- EC50 [1]: 200 nM
- EC50 [2]: ~1000 nM
- time up to which phosphor-STAT1 status sustained ([3]; 2 uM): up to 24 h
- STAT1 phosphorylation ([3]; Example 1 2 uM, IFNα 100 U/ml, 1 h, 6 h, 24 h): induced STAT1 phosphorylation
- Stat1 phosphorylation (western blot) [4]: Stat1 phosphorylation
- induction of IFNα and β mRNA (IFNA1, IFNA2, IFNB1) ([5]; 2 μM): no induction
- induction of ISGs (ISG15, Mx1, OAS1, OAS2, CXCL10, IFIH1, STAT2) ([5]; 2 μM, time course 1.5-48 h): induction of various known ISGs
- time of maximum induction of ISGs ([5]; Example 1 2 μM, IFNα 100 U/ml): 8 h
